Ends that are not written are not given here.
How the values were obtained:
[1] = system: polyQ inclusions in 150Q-nls Neuro2a cells (tNhtt-EGFP-150Q-nls); assay: ArrayScan quantification of polyQ inclusion formation in inducible 150Q-nls Neuro2a cells; type: cell-based, mouse
Procedure: (§1) Mouse neuroblastoma (Neuro2a) cells were maintained in Dulbecco's modified Eagle's medium (Sigma) supplemented with 10% heat-inactivated fetal bovine serum (Sigma), 100 U/ml penicillin and 100 μg/ml streptomycin (Invitrogen) at 37° C. in an atmosphere containing 5% CO2 and 95% air. Establishment of stable Neuro2a cell lines with the ecdysone-inducible mammalian expression system (Invitrogen), that express tNhtt-EGFP-16Q (16Q Neuro2a cells), tNhtt-EGFP-150Q (150Q Neuro2a cells) and tNhtt-EGFP-150Q-nls (150Q-nls Neuro2a cells) has been described earlier (T. Nagai et al., supra, H. Doi et al., supra, E. A. Zemskov et al., J Neurochem. 87, 2 (2003)). Neuro2a cells were differentiated with 5mM dbcAMP (N^6, 2′-O-dibutyryladenosine-3′,5′-cyclic monophosphate sodium salt) (Nacalai Tesque) and induced to express tNhtt-polyQ with 2 μM ponasterone A (ponA; Invitrogen) for indicated times. Neuro2a/FRT/TR cell line was generated as described in the protocol for Flp-in/T-Rex system (Invitrogen). Neuro2a tNhtt-62Q-kikGR cell line was generated by transfecting Neuro2a/FRT/TR cells with the pFRT-HD62-KikGR and pOG44 (Invitrogen) constructs using Lipofectamine 2000 reagent and selected with 200 μg/ml hygromycin. The expression of the pFRT-tNhtt-62Q-KikGR was induced by 18 doxycycline treatment of the cells. For the photo-induced kikGR cleavage, cells were exposed to ˜400 nm wavelength for 5 minutes. […]
(§2) For the quantification of the inclusions, cells were grown in 24-well plates for indicated periods, fixed in 4% paraformaldehyde, washed and incubated with Hoechst 33258 at 1/1000 dilution in PBS. Cells were analyzed by ArrayScan® V^TI High Content Screening (HSC) Reader (Cellomics) using Target Activation BioApplication (TABA). TABA analyzes images acquired by a HSC Reader and provides measurements of the intracellular fluorescence intensity and localization on a cell-by-cell basis.
In each well, at least 10000 cells were counted and quantified for the presence of the inclusions. Nuclei stained with Hoechst 33285 provided the autofocus target and their count gave the exact number of the quantified cells. The screening itself consisted of two scans using Hoechst, FITC (for GFP) and TRITC (for RFP) fluorescence. Firstly, number of inclusions in transfected cells was calculated when fluorescent spots at size of at least 5 pixels (magnification 20× for cytoplasmic and 40× for nuclear aggregates) with average GFP intensity more than 1500 in the RFP background were counted. […] The percentage of the cells with aggregates was then calculated. When the constructs without mRFP were used for transfection, the procedure was same, except the RFP intensity was not measured. […] Data was generated from the quantification of more than 250,000 cells in each experimental set-up.

[2] = system: polyQ inclusions in 150Q Neuro2a cells (tNhtt-EGFP-150Q); assay: ArrayScan quantification of polyQ inclusion formation in inducible 150Q Neuro2a cells; type: cell-based, mouse
Procedure: Mouse neuroblastoma (Neuro2a) cells were maintained in Dulbecco's modified Eagle's medium (Sigma) supplemented with 10% heat-inactivated fetal bovine serum (Sigma), 100 U/ml penicillin and 100 μg/ml streptomycin (Invitrogen) at 37° C. in an atmosphere containing 5% CO2 and 95% air. Establishment of stable Neuro2a cell lines with the ecdysone-inducible mammalian expression system (Invitrogen), that express tNhtt-EGFP-16Q (16Q Neuro2a cells), tNhtt-EGFP-150Q (150Q Neuro2a cells) and tNhtt-EGFP-150Q-nls (150Q-nls Neuro2a cells) has been described earlier (T. Nagai et al., supra, H. Doi et al., supra, E. A. Zemskov et al., J Neurochem. 87, 2 (2003)). Neuro2a cells were differentiated with 5mM dbcAMP (N^6, 2′-O-dibutyryladenosine-3′,5′-cyclic monophosphate sodium salt) (Nacalai Tesque) and induced to express tNhtt-polyQ with 2 μM ponasterone A (ponA; Invitrogen) for indicated times. Neuro2a/FRT/TR cell line was generated as described in the protocol for Flp-in/T-Rex system (Invitrogen). Neuro2a tNhtt-62Q-kikGR cell line was generated by transfecting Neuro2a/FRT/TR cells with the pFRT-HD62-KikGR and pOG44 (Invitrogen) constructs using Lipofectamine 2000 reagent and selected with 200 μg/ml hygromycin. The expression of the pFRT-tNhtt-62Q-KikGR was induced by 18 doxycycline treatment of the cells. For the photo-induced kikGR cleavage, cells were exposed to ˜400 nm wavelength for 5 minutes. Rat pheochromocytoma (PC12) cells were grown in the same conditions as Neuro2a cells, except for the serum composition of 5% of fetal bovine and 10% of horse serum (Sigma). All transient transfections were performed with Lipofectamine 2000 (Invitrogen) according to the manufacturer's instruction.
as §2
In each well, at least 10000 cells were counted and quantified for the presence of the inclusions. Nuclei stained with Hoechst 33285 provided the autofocus target and their count gave the exact number of the quantified cells. The screening itself consisted of two scans using Hoechst, FITC (for GFP) and TRITC (for RFP) fluorescence. Firstly, number of inclusions in transfected cells was calculated when fluorescent spots at size of at least 5 pixels (magnification 20× for cytoplasmic and 40× for nuclear aggregates) with average GFP intensity more than 1500 in the RFP background were counted. Secondly, nuclei were defined as the objects of interest and the cells with average intensity more than 50 within 3 pixels from the nucleus were selected for the analysis. The percentage of the cells with aggregates was then calculated. When the constructs without mRFP were used for transfection, the procedure was same, except the RFP intensity was not measured. Scanning was performed with triplicate or quadruplicate in each experimental condition. Data was generated from the quantification of more than 250,000 cells in each experimental set-up.

150Q-nls Neuro2a cells = assay: Cell death assay (propidium iodide uptake) in 150Q-nls Neuro2a cells; type: cell-based, mouse; details: after 48 hours of induction
Procedure: as §1, with “(Invitrogen).” for “(Invitrogen). Neuro2a tNhtt-62Q-kikGR cell line was generated by transfecting Neuro2a/FRT/TR cells with the pFRT-HD62-KikGR and pOG44 (Invitrogen) constructs using Lipofectamine 2000 reagent and selected with 200 μg/ml hygromycin. The expression of the pFRT-tNhtt-62Q-KikGR was induced by 18 doxycycline treatment of the cells. For the photo-induced kikGR cleavage, cells were exposed to ˜400 nm wavelength for 5 minutes.”
(§3) For quantification of cell death, 5 μg/ml each of Hoechst 33342 and propidium iodide (PI) were added to differentiated and induced Neuro2a cells transiently transfected with either of the tested constructs (FIG. 6A). After 10 minutes at 37° C., the number of cells with PI uptake over the total number of cells was calculated by ArrayScan.

150Q Neuro2a cells = assay: Cell death assay (propidium iodide uptake) in 150Q Neuro2a cells; type: cell-based, mouse; details: after 60 hours of induction
Procedure: as §1, with “(Invitrogen).” for “(Invitrogen). Neuro2a tNhtt-62Q-kikGR cell line was generated by transfecting Neuro2a/FRT/TR cells with the pFRT-HD62-KikGR and pOG44 (Invitrogen) constructs using Lipofectamine 2000 reagent and selected with 200 μg/ml hygromycin. The expression of the pFRT-tNhtt-62Q-KikGR was induced by 18 doxycycline treatment of the cells. For the photo-induced kikGR cleavage, cells were exposed to ˜400 nm wavelength for 5 minutes.”
as §3

[3] = system: polyQ inclusions in 150Q Neuro2a cells; assay: Confocal imaging of tested constructs in 150Q Neuro2a cells; type: cell-based, mouse
Procedure: as §1

tNhtt-150Q = target: T1, tNhtt-150Q (Homo sapiens, UniProt P42858); assay: Western blot of polyQ aggregation (gel top) in 150Q Neuro2a cells; type: cell-based; details: expression of mRFP-tagged constructs
T1 construct: N-terminal fragment of human huntington exon 1 (tNhtt); expressed in transfected cells
T1 sequence (P42858 with tags, fused parts or gaps): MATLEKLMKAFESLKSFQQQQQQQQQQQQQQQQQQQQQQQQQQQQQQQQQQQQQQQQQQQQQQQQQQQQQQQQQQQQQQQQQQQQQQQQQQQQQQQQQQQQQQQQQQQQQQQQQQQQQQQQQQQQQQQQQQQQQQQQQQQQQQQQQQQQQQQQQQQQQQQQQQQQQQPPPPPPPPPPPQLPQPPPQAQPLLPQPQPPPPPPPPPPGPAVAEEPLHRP
Procedure: as §1, with “(Invitrogen).” for “(Invitrogen). Neuro2a tNhtt-62Q-kikGR cell line was generated by transfecting Neuro2a/FRT/TR cells with the pFRT-HD62-KikGR and pOG44 (Invitrogen) constructs using Lipofectamine 2000 reagent and selected with 200 μg/ml hygromycin. The expression of the pFRT-tNhtt-62Q-KikGR was induced by 18 doxycycline treatment of the cells. For the photo-induced kikGR cleavage, cells were exposed to ˜400 nm wavelength for 5 minutes.”
(§4) Cells were washed twice with ice-cold PBS, scraped, and resuspended in lysis buffer (0.5% Triton X-100 in PBS, 0.5 mM phenylmethylsulfonyl fluoride, Complete protease inhibitor mixture (Roche Applied Sciences)). […] Immunoreactive proteins were detected with enhanced chemiluminescence reagents (Amersham Biosciences). […]

tNhtt-16Q = assay: Western blot of tNhtt-16Q levels in inducible Neuro2a cells; type: cell-based, human; details: inducible 16Q Neuro2a cells, transfection
Procedure: as §1, with “(Invitrogen).” for “(Invitrogen). Neuro2a tNhtt-62Q-kikGR cell line was generated by transfecting Neuro2a/FRT/TR cells with the pFRT-HD62-KikGR and pOG44 (Invitrogen) constructs using Lipofectamine 2000 reagent and selected with 200 μg/ml hygromycin. The expression of the pFRT-tNhtt-62Q-KikGR was induced by 18 doxycycline treatment of the cells. For the photo-induced kikGR cleavage, cells were exposed to ˜400 nm wavelength for 5 minutes.”
as §4

(QBP1)2 (MSNWKWWPGIFDSNWKWWPGIFD) [reference compound]
reduction of aggregation compared to control counterparts (S and HS) ([1]; 150Q-nls Neuro2a cells, constructs without mRFP, 48 hours after induction): 24.7% | decrease of aggregation compared to control counterparts (S and HS) ([2]; constructs without mRFP, induced and differentiated for 24 hours): 32.6% | decrease of the percentage of PI-positive cells (150Q-nls Neuro2a cells): 17.7% | decrease of the percentage of PI-positive cells (150Q Neuro2a cells): 12.3%

mRFP-(QBP1)2 (MSNWKWWPGIFDSNWKWWPGIFD; also: fused to mRFP) [RQ, monomeric red fluorescent protein fused to (QBP1)2, reference compound]
localization relative to polyQ inclusions [3]: co-localized with the polyQ inclusions | polyQ aggregation (gel top) (tNhtt-150Q): markedly decreased | levels of tNhtt-16Q (tNhtt-16Q): not affected | decrease of the polyQ inclusion formation ([1]; 150Qnls Neuro2a cells, mRFP-tagged constructs, after 48 hours of differentiation and induction): 21.5% | decrease of inclusion formation ([2]; mRFP-tagged constructs, after 24 hours of differentiation and induction): 38%
